The test system of this series is CCRIS mutagenicity, Ames/micronucleus/aberration tests. In words: CCRIS mutagenicity studies.
Where [1] appears, read: Test System: AMES SALMONELLA TYPHIMURIUM, Strain/Indicator: TA98, Metabolic Activation: NONE, Method: PREINCUBATION
The mark [2] stands for this setting: Test System: AMES SALMONELLA TYPHIMURIUM, Strain/Indicator: TA100, Metabolic Activation: NONE, Method: PREINCUBATION

For 5 compounds, mutagenic call results are on record in PubChem BioAssay AID1259407 (Chemical Carcinogenesis Research Information System (CCRIS), 2018).

The source made the active and inactive calls. The rule behind the calls is not given here.

For the compound `C1=Cc2c(cc3ccc4cccc5ccc2c3c45)CC1`, the mutagenic call reads like this: (Test System: AMES SALMONELLA TYPHIMURIUM, Strain/Indicator: TA98, Metabolic Activation: RAT, LIVER, S-9, AROCLOR 1254, Method: STANDARD PLATE) “active; positive”; (Test System: AMES SALMONELLA TYPHIMURIUM, Strain/Indicator: TA1537, Metabolic Activation: RAT, LIVER, S-9, AROCLOR 1254, Method: STANDARD PLATE) “active; positive”; (Test System: AMES SALMONELLA TYPHIMURIUM, Strain/Indicator: TA1538, Metabolic Activation: RAT, LIVER, S-9, AROCLOR 1254, Method: STANDARD PLATE) “active; positive”.

`NN(CCO)c1ccn([C@@H]2O[C@H](CO)[C@@H](O)[C@H]2O)c(=O)n1`: the mutagenic call (Test System: CHINESE HAMSTER V-79, Strain/Indicator: V-79/6-THIOGUANINE, Metabolic Activation: NONE, Method: REPLATING) is “inactive; negative”.

As to `CCc1cccc(CC)c1N(COC)C(=O)CCl`, the mutagenic call by setting is: (End Point: IN VITRO CHROMOSOMAL ABERRATIONS, Test System: PERIPHERAL BLOOD HUMAN LYMPHOCYTES, Metabolic Activation: NONE) “inactive; negative; chromosomal aberrations not increased but chromatid-type aberrations i”; (End Point: IN VITRO MICRONUCLEUS, Test System: HUMAN PERIPHERAL BLOOD LYMPHOCYTES, Metabolic Activation: NONE) “active; positive; result at highest dose; variation among donors”; (End Point: IN VITRO MICRONUCLEUS, Test System: HUMAN PERIPHERAL BLOOD LYMPHOCYTES, Metabolic Activation: S-9) “active; positive; result at highest dose; variation among donors”; (End Point: IN VITRO MICRONUCLEUS, Test System: PERIPHERAL BLOOD HUMAN LYMPHOCYTES, Metabolic Activation: NONE) “active; positive; variation among donors”; under setting [1], “inactive; negative”; (Test System: AMES SALMONELLA TYPHIMURIUM, Strain/Indicator: TA98, Metabolic Activation: NONE, Method: STANDARD PLATE) “inactive; negative”. The mutagenic call runs as follows: (Test System: AMES SALMONELLA TYPHIMURIUM, Strain/Indicator: TA98, Metabolic Activation: RAT, LIVER, MICROSOMES, PHENOBARBITAL, Method: PREINCUBATION) “inactive; negative”; (Test System: AMES SALMONELLA TYPHIMURIUM, Strain/Indicator: TA98, Metabolic Activation: S-9, Method: STANDARD PLATE) “inactive; negative”; under setting [2], “inactive; negative”; (Test System: AMES SALMONELLA TYPHIMURIUM, Strain/Indicator: TA100, Metabolic Activation: NONE, Method: STANDARD PLATE) “inactive; negative”; (Test System: AMES SALMONELLA TYPHIMURIUM, Strain/Indicator: TA100, Metabolic Activation: RAT OLFACTORY S-9, Method: PREINCUBATION) “active; positive”; (Test System: AMES SALMONELLA TYPHIMURIUM, Strain/Indicator: TA100, Metabolic Activation: RAT RESPIRATORY S-9, Method: PREINCUBATION) “inactive; negative”. Moreover, the mutagenic call runs as follows: (Test System: AMES SALMONELLA TYPHIMURIUM, Strain/Indicator: TA100, Metabolic Activation: RAT, LIVER, MICROSOMES, PHENOBARBITAL, Method: PREINCUBATION) “inactive; negative”; (Test System: AMES SALMONELLA TYPHIMURIUM, Strain/Indicator: TA100, Metabolic Activation: RAT, LIVER, S-9, Method: PREINCUBATION) “active; positive”; (Test System: AMES SALMONELLA TYPHIMURIUM, Strain/Indicator: TA100, Metabolic Activation: S-9, Method: STANDARD PLATE) “inactive; negative”; (Test System: AMES SALMONELLA TYPHIMURIUM, Strain/Indicator: TA1535, Metabolic Activation: NONE, Method: STANDARD PLATE) “inactive; negative”; (Test System: AMES SALMONELLA TYPHIMURIUM, Strain/Indicator: TA1535, Metabolic Activation: S-9, Method: STANDARD PLATE) “inactive; negative”; (Test System: AMES SALMONELLA TYPHIMURIUM, Strain/Indicator: TA1537, Metabolic Activation: NONE, Method: STANDARD PLATE) “inactive; negative”. Moreover, the mutagenic call reads like this: (Test System: AMES SALMONELLA TYPHIMURIUM, Strain/Indicator: TA1537, Metabolic Activation: S-9, Method: STANDARD PLATE) “inactive; negative”; (Test System: AMES SALMONELLA TYPHIMURIUM, Strain/Indicator: TA1538, Metabolic Activation: NONE, Method: STANDARD PLATE) “active; positive”; (Test System: AMES SALMONELLA TYPHIMURIUM, Strain/Indicator: TA1538, Metabolic Activation: S-9, Method: STANDARD PLATE) “inactive; negative”; (Test System: MOUSE LYMPHOMA, Strain/Indicator: 3.7.2C (TK+/TK-), Metabolic Activation: RAT OLFACTORY S-9, Method: SUSPENSION/PLATE) “active; positive”.

Take `CC(=O)c1cc(NC(=O)NC(C)(C)C)ccc1OCC(O)CNC(C)(C)C` (stereo not given): the mutagenic call under setting [1] is “inactive; negative”; the mutagenic call (Test System: AMES SALMONELLA TYPHIMURIUM, Strain/Indicator: TA98, Metabolic Activation: RAT, LIVER, S-9, PHENOBARBITAL AND 5,6-BENZOFLAVONE (10 OR 50 µL/PLATE), Method: PREINCUBATION) is “inactive; negative”; the mutagenic call under setting [2] was “inactive; negative”; the mutagenic call (Test System: AMES SALMONELLA TYPHIMURIUM, Strain/Indicator: TA100, Metabolic Activation: RAT, LIVER, S-9, PHENOBARBITAL AND 5,6-BENZOFLAVONE (10 OR 50 µL/PLATE), Method: PREINCUBATION) is “inactive; negative”; the mutagenic call (Test System: AMES SALMONELLA TYPHIMURIUM, Strain/Indicator: TA1535, Metabolic Activation: NONE, Method: PREINCUBATION) is “inactive; negative”; the mutagenic call (Test System: AMES SALMONELLA TYPHIMURIUM, Strain/Indicator: TA1535, Metabolic Activation: RAT, LIVER, S-9, PHENOBARBITAL AND 5,6-BENZOFLAVONE (10 OR 50 µL/PLATE), Method: PREINCUBATION) is “inactive; negative”. Also, the mutagenic call is “inactive; negative” (Test System: AMES SALMONELLA TYPHIMURIUM, Strain/Indicator: TA1537, Metabolic Activation: NONE, Method: PREINCUBATION); “inactive; negative” (Test System: AMES SALMONELLA TYPHIMURIUM, Strain/Indicator: TA1537, Metabolic Activation: RAT, LIVER, S-9, PHENOBARBITAL AND 5,6-BENZOFLAVONE (10 OR 50 µL/PLATE), Method: PREINCUBATION); “inactive; negative” (Test System: E. COLI, Strain/Indicator: WP2 UVRA, Metabolic Activation: NONE, Method: PREINCUBATION); “inactive; negative” (Test System: E. COLI, Strain/Indicator: WP2 UVRA, Metabolic Activation: RAT, LIVER, S-9, PHENOBARBITAL AND 5,6-BENZOFLAVONE (10 OR 50 µL/PLATE), Method: PREINCUBATION).

For the compound `O=C(O)[C@H](O)[C@@H](O)[C@H](O)[C@H](O)CO`, the mutagenic call is, setting by setting: (Test System: AMES SALMONELLA TYPHIMURIUM, Strain/Indicator: TA97, Metabolic Activation: NONE, Method: PREINCUBATION) “inactive; negative”; (Test System: AMES SALMONELLA TYPHIMURIUM, Strain/Indicator: TA97, Metabolic Activation: RAT, LIVER, S-9, AROCLOR 1254, Method: PREINCUBATION) “inactive; negative”; (Test System: AMES SALMONELLA TYPHIMURIUM, Strain/Indicator: TA102, Metabolic Activation: NONE, Method: PREINCUBATION) “inactive; negative”; (Test System: AMES SALMONELLA TYPHIMURIUM, Strain/Indicator: TA102, Metabolic Activation: RAT, LIVER, S-9, AROCLOR 1254, Method: PREINCUBATION) “inactive; negative”.
